Experimental data as given in patent EP0113880A2, “Derivatives from 2-azabicyclo(2.2.1)heptane, process for their preparation, agents containing them and their use, and 2-azabicyclo(2.2.1)heptane derivatives as intermediates, and process for their preparation” (HOECHST AKTIENGESELLSCHAFT, priority 1982, dated 1984).
Where a name gives a salt, the structure may show the parent alone. Read-outs that look alike come from different tables or passages of the source.

Test system: durch 310 ng Angiotensin I ausgelösten Pressorreaktion
Experiment: Inhibition of the angiotensin I induced pressor response after intraduodenal administration to the anaesthetised rat
Format: in vivo, Ratte
Conditions: dose giving 50 % inhibition of the pressor response to 310 ng angiotensin I, 30 min after application
Method: Intraduodenale Gabe an der narkotisierten Ratte, 50 % Hemmung der durch 310 ng Angiotensin I ausgelösten Pressorreaktion 30 min. nach Applikation in der Dosis .............- ED50: […]

Compound	ED50 [mg/kg]	ED50 (30 min) [mg/kg]	other results
CCOC(=O)[C@H](CC(=O)c1ccccc1)N[C@@H](C)C(=O)N1C2CCC(C2)[C@H]1C(=O)O (stereo partly drawn) [N-(1-S-Carbethoxy-3-oxo-3-phenyl-propyl)-S-alanyl-2-azabicyclo [2.2.1] heptan-3-S-exo-carbonsäure]	0.9	–	–
CCOC(=O)[C@H](CC(=O)c1ccccc1)N[C@@H](C)C(=O)N1[C@H]2CC[C@H](C2)[C@H]1C(=O)O [N-(1-S-Carbethoxy-3-phenyl-3-oxo-propyl)-S-alanyl-2-azabicyclo [2.2.1] heptan-3-S-endo-carbonsäure. Hydrochlorid]	–	–	ED50 (0.5 h, read-out: ED50): 0.75 mg/kg
C[C@H](N[C@@H](CCc1ccccc1)C(=O)O)C(=O)N1C2CCC(C2)[C@H]1C(=O)O (stereo partly drawn) [n=1, X=C6H5, Y=H, Z=H, R^1=H, R^2=CH3, R=H, endo] [N-(1-S-Carboxy-3-phenyl-propyl)-S-alanyl-2-azabicyclo , [2.2.1] heptan-3-S-endo-carbonsäure]	–	1.6	–
C[C@H](N[C@@H](CCc1ccccc1)C(=O)O)C(=O)N1C2CCC(C2)[C@H]1C(=O)O (stereo partly drawn) [n=1, X=C6H5, Y=H, Z=H, R^1=H, R^2=CH3, R=H, exo] [N-(1-S-Carboxy-3-phenyl-propyl)-S-alanyl-2-azabicyclo [2.2.1 J heptan-3-S-exo-carbonsäure]	–	1.8	–
N-(1-S-Carbethoxy-3-phenyl-propyl)-S-alanyl-2-azabicyclo [2.2.1 ] heptan-3-S-exo-carbonsäure Hydrochlorid	0.7	–	–
N-(1-S-Carbethoxy-3-phenyl-propyl)-S-alanyl-2-azabicyclo [ 2.2.1] heptan-3-S-endo-carbonsäure-Hydrochlorid	0.5	–	–
